Among the data in the PolyMetriX glass transition set are glass transition temperature values, retold here.

The compound `*/C=C(/*)c1ccccc1[Si](C)(C)C` (repeat unit) displayed a glass transition temperature of 190.00 °C.
Next, `*/C=N/c1ccc(C(=O)OCCCCOCCCCOCCCCOC(=O)c2ccc(/N=C/c3ccc(*)s3)cc2)cc1` (repeat unit): 25.00 °C; `*C(=O)OCCCCCCCCCCOC(=O)c1ccc(N2C(=O)c3ccc(*)cc3C2=O)cc1` (repeat unit): 58.00 °C; `*C(=O)OCCCCOC(=O)c1ccc(N2C(=O)c3ccc(*)cc3C2=O)cc1` (repeat unit): 100.50 °C.
The result for `*C(=O)OCCCSCCCCSCCCOC(=O)c1ccc(N2C(=O)c3ccc(*)cc3C2=O)cc1` (repeat unit) reads 39.00 °C.
Next, `*C(=O)OCCN(CCOC(=O)c1ccc2c(c1)C(=O)N(c1cccc(N3C(=O)c4ccc(*)cc4C3=O)c1)C2=O)c1ccc(/N=N/c2ccc([N+](=O)[O-])cc2)cc1` (repeat unit): 210.00 °C.
Consider `*CCCCCCCCCCOC(=O)O*` (repeat unit), for which the glass transition temperature was -37.00 °C.
As for `*CCCCCCCCCCOC(=O)c1ccc(-c2ccc(C(=O)O*)cc2)cc1` (repeat unit), the glass transition temperature was determined as 52.00 °C.
Next, `*CCCCCCCCCCOC(=O)c1ccc(C(=O)O*)cc1` (repeat unit): 10.50 °C.
Compound `*CCCCCCCCCCOc1ccc(/C=C/c2ccc(OCCCCCCCCCCOP(=O)(O*)OCCCCCCCCCCOc3ccc(/N=N/c4ccc(OC)cc4)cc3)cc2)cc1` (repeat unit) yielded a glass transition temperature of 58.00 °C.
The result for `*CCCCCCCCCCOc1ccc(/N=C/c2ccc(/C=N/c3ccc(O*)cc3C)cc2)c(C)c1` (repeat unit) reads 77.60 °C; that for `*CCCCCCCCCCOc1ccc(CCc2ccc(O*)cc2C)cc1` (repeat unit), -3.00 °C; that for `*CCCCCCCCCOC(=O)C(O)C(O)C(=O)O*` (repeat unit), -11.00 °C.
Next, `*CCCCCCCCCOC(=O)c1ccc(-c2ccc(C(=O)O*)cc2)cc1` (repeat unit): 50.50 °C; `*CCCCCCCCCOC(=O)c1ccc2cc(C(=O)O*)ccc2c1` (repeat unit): 50.00 °C.
Compound `*CCCCCCCCOC(=O)c1ccc(-c2ccc(C(=O)O*)cc2)cc1` (repeat unit) showed a glass transition temperature of 47.00 °C.
Next, `*CCCCCCCCOc1ccc(/C=C2\CC/C(=C\c3ccc(OCCCCCCCCOP(=O)(O*)OCC)c(OC)c3)C2=O)cc1OC` (repeat unit): 62.00 °C.
Next, `*CCCCCCCOC(=O)c1ccc(-c2ccc(C(=O)O*)cc2)cc1` (repeat unit): 44.00 °C; `*CCCCCCOC(=O)C(=O)O*` (repeat unit): 66.50 °C.
The result for `*CCCCCCOC(=O)C(CCCCCCCCCCP(=O)(O)O)C(=O)OCCCCCCOc1ccc(-n2on2-c2ccc(O*)cc2)cc1` (repeat unit) reads 16.00 °C; that for `*CCCCCCOC(=O)C(CCCCP(=O)(O)O)C(=O)OCCCCCCOc1ccc(-n2on2-c2ccc(O*)cc2)cc1` (repeat unit), 19.00 °C; that for `*CCCCCCOC(=O)OCCCCCCCCCCOC(=O)OCCCCCCOc1ccc(Oc2ccc(O*)cc2)cc1` (repeat unit), -22.00 °C.
In the case of `*CCCCCCOC(=O)OCCCCCCCCCOC(=O)OCCCCCCOc1ccc(Oc2ccc(O*)cc2)cc1` (repeat unit), the glass transition temperature is -20.00 °C.
With `*CCCCCCOC(=O)OCCCCCCCCOC(=O)OCCCCCCn1c(=O)c2cc3c(=O)n(*)c(=O)c3cc2c1=O` (repeat unit), the glass transition temperature is 8.00 °C.
Next, `*CCCCCCOC(=O)OCCCCCCOC(=O)OCCCCCCN1C(=O)c2ccc(C(=O)c3ccc4c(c3)C(=O)N(*)C4=O)cc2C1=O` (repeat unit): 40.00 °C; `*CCCCCCOC(=O)OCCCCCCOC(=O)OCCCCCCOc1ccc(-c2ccc(O*)cc2)cc1` (repeat unit): 16.60 °C; `*CCCCCCOC(=O)OCCCCCCOC(=O)OCCCCCCOc1ccc(Oc2ccc(O*)cc2)cc1` (repeat unit): -13.00 °C.
Next, `*CCCCCCOC(=O)OCCCCCOC(=O)OCCCCCCOc1ccc(Oc2ccc(O*)cc2)cc1` (repeat unit): -11.00 °C; `*CCCCCCOC(=O)OCCCCOC(=O)OCCCCCCOc1ccc(Oc2ccc(O*)cc2)cc1` (repeat unit): -8.00 °C.
The result for `*CCCCCCOC(=O)OCCCOC(=O)OCCCCCCOc1ccc(Oc2ccc(O*)cc2)cc1` (repeat unit) reads -6.00 °C; that for `*CCCCCCOC(=O)c1ccc(-c2ccc(-c3ccc(C(=O)O*)cc3)cc2)cc1` (repeat unit), 60.00 °C; that for `*CCCCCOC(=O)OCCCCCN1C(=O)c2ccc(-c3ccc4c(c3)C(=O)N(*)C4=O)cc2C1=O` (repeat unit), 84.00 °C.
`*CCCCCOC(=O)c1ccc(-c2ccc(-c3ccc(C(=O)O*)cc3)cc2)cc1` (repeat unit) yielded a glass transition temperature of 40.00 °C.
The result for `*CCCCCOC(=O)c1ccc(/C=C/c2ccc(C(=O)O*)cc2)cc1` (repeat unit) reads 60.00 °C.
The result for `*CCCCCOC(=O)c1cccc(C(=O)O*)c1` (repeat unit) reads 7.00 °C; that for `*CCCCCOc1ccc(CCc2ccc(O*)cc2C)cc1` (repeat unit), 15.40 °C; that for `*CCCCCOc1ccc(OCCCCCc2nnc(-c3ccc(-c4nnc(*)o4)cc3)o2)c(C)c1` (repeat unit), 95.00 °C.
Next, `*CCCCOC(=O)O*` (repeat unit): -27.00 °C.
`*CCCCOC(=O)OCC1CCC(COC(=O)O*)CC1` (repeat unit): the glass transition temperature turned out to be 13.00 °C.
Turning to `*CCCCOC(=O)c1ccc(-c2ccc(-c3ccc(C(=O)O*)cc3)cc2)cc1` (repeat unit), the glass transition temperature worked out at 180.00 °C.
The result for `*CCCOC(=O)O*` (repeat unit) reads -17.70 °C; that for `*CCCOC(=O)c1cccc(C(=O)O*)c1` (repeat unit), 36.00 °C; that for `*CCCOCCCOC(=O)c1ccc(-c2ccc(C(=O)O*)cc2)cc1` (repeat unit), 18.50 °C.
The compound `*CCCS(=O)(=O)CCCCS(=O)(=O)CCCOC(=O)c1cccc(C(=O)O*)c1` (repeat unit) had a glass transition temperature of 65.00 °C.
Next, `*CCCS(=O)(=O)CCCS(=O)(=O)CCCOC(=O)c1cccc(C(=O)O*)c1` (repeat unit): 67.00 °C; `*CCCS(=O)(=O)CCCS(=O)(=O)CCCOC(=O)c1ccccc1C(=O)O*` (repeat unit): 52.00 °C.
The result for `*CCN(CCOC(=O)c1cc(OC2CCN(c3ccc(S(=O)(=O)C(F)(F)C(F)(F)C(F)(F)C(F)(F)C(F)(F)C(F)(F)C(F)(F)C(F)(F)F)cc3)CC2)cc(C(=O)O*)c1)c1ccc(S(=O)(=O)C(F)(F)C(F)(F)C(F)(F)C(F)(F)C(F)(F)C(F)(F)C(F)(F)C(F)(F)F)cc1` (repeat unit) reads 99.00 °C; that for `*CCOC(=O)C1=CCCCC(N2CCCC2)=C1C(=O)O*` (repeat unit), 352.50 °C.
Next, `*CCOC(=O)C1C2C=CC(C2)C1C(=O)O*` (repeat unit): 0.00 °C; `*OC(=O)OCCCCCCCCCCOC(=O)OC1COC2C(*)COC12` (repeat unit): 6.50 °C; `*OC(=O)OCCCCCCCCOC(=O)OC1COC2C(*)COC12` (repeat unit): 19.50 °C.
The compound `*Oc1ccc(-c2ccc(Oc3ccc(C(=O)c4ccc(*)c(S(=O)(=O)O)c4)cc3S(=O)(=O)O)cc2)cc1` (repeat unit) registered a glass transition temperature of 225.00 °C.
The result for `*Oc1ccc(-c2ccc(Oc3ccc(C(=O)c4ccc(*)cc4)cc3)cc2)cc1` (repeat unit) reads 167.00 °C; that for `*Oc1ccc(C(=O)OCCCCCCCOC(=O)c2ccc(OC(=O)c3ccc(C(*)=O)cc3)cc2)cc1` (repeat unit), 70.00 °C.
The result for `*Oc1ccc(C(=O)OCCCCOC(=O)c2ccc(*)cc2)cc1` (repeat unit) reads 38.00 °C; that for `*Oc1ccc(C(=O)OCCCOC(=O)c2ccc(*)cc2)cc1` (repeat unit), 57.00 °C.
As to `*c1ccc(C(=O)OCCCCCCCCOC(=O)c2ccc(-c3nnc(*)s3)cc2)cc1` (repeat unit), the glass transition temperature came to 86.00 °C.
Next, `*c1ccc(C(=O)OCCCCCCOC(=O)c2ccc(-c3nnc(*)s3)cc2)cc1` (repeat unit): 125.00 °C.
On to `*c1ccc(C(=O)OCCCCCCOc2ccc(/C=C3\CCCC/C(=C\c4ccc(OCCCCCCOC(=O)c5ccc(-c6nnc(*)o6)cc5)cc4)C3=O)cc2)cc1` (repeat unit), for which the glass transition temperature turned out to be 104.00 °C.
Next, `*c1ccc(OCCCCCCCCCCCOC(=O)c2cccc(C(=O)OCCCCCCCCCCCOc3cccc(-c4nnc(*)s4)c3)c2)cc1` (repeat unit): 39.00 °C; `*c1ccc(Oc2ccc(-c3csc(/N=C/c4ccc(OCCCCCCCCOc5ccc(/C=N/c6nc(*)cs6)cc5)cc4)n3)cc2)cc1` (repeat unit): 150.00 °C.
The result for `*c1ccc(Oc2ccc(C(=O)c3ccc(Oc4ccc(-c5c6c(c(*)c7ccccc57)C(=O)N(c5ccccc5)C6=O)cc4)cc3)cc2)cc1` (repeat unit) reads 273.50 °C; that for `*c1ccc(Oc2ccc(C(=O)c3ccc(Oc4ccc(-c5cc(*)[nH]n5)cc4)cc3)cc2)cc1` (repeat unit), 229.00 °C.
As for `*c1ccc(Oc2ccc(C(=O)c3ccc(Oc4ccc(-c5nc(-c6ccccn6)nnc5*)cc4)cc3)cc2)cc1` (repeat unit), the glass transition temperature was 223.00 °C.
The result for `*c1cccc(OCCCCCCCCCCCOC(=O)c2cccc(C(=O)OCCCCCCCCCCCOc3cccc(-c4nnc(*)s4)c3)c2)c1` (repeat unit) reads 15.00 °C.
